Measurements from ChEMBL document CHEMBL4507302, “Data for DCP probe TP-020” (2021).

Experiments:
[1] = molecular target: Myosin light chain kinase, smooth muscle (Homo sapiens) (UniProt Q15746); details: Compound concentration 1000.0 nM
[2] = molecular target: MAP/microtubule affinity-regulating kinase 3 (Homo sapiens) (UniProt P27448); details: Compound concentration 1000.0 nM
[3] = molecular target: Casein kinase I isoform delta (Homo sapiens) (UniProt P48730); details: Compound concentration 1000.0 nM
[4] = molecular target: Serine/threonine-protein kinase 4 (Homo sapiens) (UniProt Q13043); details: Compound concentration 1000.0 nM
[5] = molecular target: Mitogen-activated protein kinase 1 (Homo sapiens) (UniProt P28482); details: Compound concentration 1000.0 nM
[6] = molecular target: Cyclin-dependent kinase 9 (Homo sapiens) (UniProt P50750); details: Compound concentration 1000.0 nM
[7] = molecular target: Cyclin-dependent kinase 8 (Homo sapiens) (UniProt P49336); details: Compound concentration 1000.0 nM
[8] = molecular target: Myotonin-protein kinase (Homo sapiens) (UniProt Q09013); details: Compound concentration 1000.0 nM
[9] = molecular target: Dual specificity mitogen-activated protein kinase kinase 3 (Homo sapiens) (UniProt P46734); details: Compound concentration 1000.0 nM
[10] = molecular target: Mitogen-activated protein kinase kinase kinase 4 (Homo sapiens) (UniProt Q9Y6R4); details: Compound concentration 1000.0 nM
[11] = molecular target: Serine/threonine-protein kinase MAK (Homo sapiens) (UniProt P20794); details: Compound concentration 1000.0 nM
[12] = molecular target: LIM domain kinase 2 (Homo sapiens) (UniProt P53671); details: Compound concentration 1000.0 nM
[13] = molecular target: Cyclin-dependent kinase-like 3 (Homo sapiens) (UniProt Q8IVW4); details: Compound concentration 1000.0 nM
[14] = molecular target: RAC-gamma serine/threonine-protein kinase (Homo sapiens) (UniProt Q9Y243); details: Compound concentration 1000.0 nM
[15] = molecular target: Serine/threonine-protein kinase DCLK3 (Homo sapiens) (UniProt Q9C098); details: Compound concentration 1000.0 nM
[16] = molecular target: Ephrin type-B receptor 3 (Homo sapiens) (UniProt P54753); details: Compound concentration 1000.0 nM
[17] = molecular target: Myosin light chain kinase 2, skeletal/cardiac muscle (Homo sapiens) (UniProt Q9H1R3); details: Compound concentration 1000.0 nM
[18] = molecular target: Platelet-derived growth factor receptor alpha (Homo sapiens) (UniProt P16234); details: Compound concentration 1000.0 nM
[19] = molecular target: Cyclin-dependent kinase 17 (Homo sapiens) (UniProt Q00537); details: Compound concentration 1000.0 nM
[20] = molecular target: Cyclin-dependent kinase 11A (Homo sapiens) (UniProt Q9UQ88); details: Compound concentration 1000.0 nM
[21] = molecular target: Calcium/calmodulin-dependent protein kinase type 1G (Homo sapiens) (UniProt Q96NX5); details: Compound concentration 1000.0 nM
[22] = molecular target: Casein kinase I isoform gamma-2 (Homo sapiens) (UniProt P78368); details: Compound concentration 1000.0 nM
[23] = molecular target: Serine/threonine-protein kinase 10 (Homo sapiens) (UniProt O94804); details: Compound concentration 1000.0 nM
[24] = molecular target: Myosin light chain kinase (Homo sapiens) (UniProt Q32MK0); details: Compound concentration 1000.0 nM
[25] = molecular target: Phosphatidylinositol 4-kinase beta (Homo sapiens) (UniProt Q9UBF8); details: Compound concentration 1000.0 nM
[26] = molecular target: Receptor-interacting serine/threonine-protein kinase 4 (Homo sapiens) (UniProt P57078); details: Compound concentration 1000.0 nM
[27] = molecular target: 5-hydroxytryptamine receptor 7 (Homo sapiens) (UniProt P34969); details: Compound concentration 10.0 uM
[28] = molecular target: Mitogen-activated protein kinase kinase kinase 6 (Homo sapiens) (UniProt O95382); details: Compound concentration 1000.0 nM
[29] = molecular target: Mitogen-activated protein kinase kinase kinase kinase 1 (Homo sapiens) (UniProt Q92918); details: Compound concentration 1000.0 nM
[30] = molecular target: Ephrin type-A receptor 7 (Homo sapiens) (UniProt Q15375); details: Compound concentration 1000.0 nM
[31] = molecular target: Serine/threonine-protein kinase Sgk2 (Homo sapiens) (UniProt Q9HBY8); details: Compound concentration 1000.0 nM
[32] = molecular target: Serine/threonine-protein kinase SIK1 (Homo sapiens) (UniProt P57059); details: Compound concentration 1000.0 nM
[33] = molecular target: SNF-related serine/threonine-protein kinase (Homo sapiens) (UniProt Q9NRH2); details: Compound concentration 1000.0 nM
[34] = molecular target: Serine/threonine-protein kinase PAK 3 (Homo sapiens) (UniProt O75914); details: Compound concentration 1000.0 nM
[35] = molecular target: Serine/threonine-protein kinase TBK1 (Homo sapiens) (UniProt Q9UHD2); details: Compound concentration 1000.0 nM
[36] = molecular target: Phosphatidylinositol 4,5-bisphosphate 3-kinase catalytic subunit beta isoform (Homo sapiens) (UniProt P42338); details: Compound concentration 1000.0 nM
[37] = molecular target: 5'-AMP-activated protein kinase catalytic subunit alpha-2 (Homo sapiens) (UniProt P54646); details: Compound concentration 1000.0 nM
[38] = molecular target: Serine/threonine-protein kinase Nek4 (Homo sapiens) (UniProt P51957); details: Compound concentration 1000.0 nM
[39] = molecular target: Serine/threonine-protein kinase LATS1 (Homo sapiens) (UniProt O95835); details: Compound concentration 1000.0 nM
[40] = molecular target: Serine/threonine-protein kinase Nek11 (Homo sapiens) (UniProt Q8NG66); details: Compound concentration 1000.0 nM
[41] = molecular target: Receptor tyrosine-protein kinase erbB-3 (Homo sapiens) (UniProt P21860); details: Compound concentration 1000.0 nM
[42] = molecular target: Tyrosine-protein kinase ABL2 (Homo sapiens) (UniProt P42684); details: Compound concentration 1000.0 nM
[43] = molecular target: RAC-alpha serine/threonine-protein kinase (Homo sapiens) (UniProt P31749); details: Compound concentration 1000.0 nM
[44] = molecular target: D(1A) dopamine receptor (Homo sapiens) (UniProt P21728); details: Compound concentration 10.0 uM
[45] = molecular target: Homeodomain-interacting protein kinase 1 (Homo sapiens) (UniProt Q86Z02); details: Compound concentration 1000.0 nM
[46] = molecular target: Tyrosine-protein kinase Lyn (Homo sapiens) (UniProt P07948); details: Compound concentration 1000.0 nM

Receptor-interacting serine/threonine-protein kinase 4 (Homo sapiens), sequence (P57078 whole entry): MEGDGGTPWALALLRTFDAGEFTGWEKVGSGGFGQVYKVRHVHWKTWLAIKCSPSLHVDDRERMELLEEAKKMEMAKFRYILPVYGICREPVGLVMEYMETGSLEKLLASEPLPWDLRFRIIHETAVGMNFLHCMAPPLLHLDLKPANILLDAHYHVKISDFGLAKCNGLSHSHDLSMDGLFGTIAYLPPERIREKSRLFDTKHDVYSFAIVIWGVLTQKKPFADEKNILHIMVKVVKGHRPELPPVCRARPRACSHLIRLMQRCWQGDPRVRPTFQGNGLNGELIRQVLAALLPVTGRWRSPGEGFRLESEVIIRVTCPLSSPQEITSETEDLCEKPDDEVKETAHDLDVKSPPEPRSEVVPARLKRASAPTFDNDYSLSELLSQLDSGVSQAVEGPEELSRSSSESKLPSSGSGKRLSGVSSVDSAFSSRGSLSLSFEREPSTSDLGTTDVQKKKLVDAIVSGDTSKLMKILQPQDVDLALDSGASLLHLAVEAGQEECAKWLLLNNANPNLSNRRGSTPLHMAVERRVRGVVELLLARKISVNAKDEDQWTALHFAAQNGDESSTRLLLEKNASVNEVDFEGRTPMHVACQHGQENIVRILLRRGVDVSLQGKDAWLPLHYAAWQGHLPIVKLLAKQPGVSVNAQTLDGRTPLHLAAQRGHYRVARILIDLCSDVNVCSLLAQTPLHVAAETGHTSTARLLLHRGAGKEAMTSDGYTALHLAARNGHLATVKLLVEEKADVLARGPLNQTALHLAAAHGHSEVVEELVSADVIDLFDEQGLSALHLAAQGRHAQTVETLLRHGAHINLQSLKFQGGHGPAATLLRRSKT
RAC-gamma serine/threonine-protein kinase (Homo sapiens), sequence (Q9Y243 whole entry): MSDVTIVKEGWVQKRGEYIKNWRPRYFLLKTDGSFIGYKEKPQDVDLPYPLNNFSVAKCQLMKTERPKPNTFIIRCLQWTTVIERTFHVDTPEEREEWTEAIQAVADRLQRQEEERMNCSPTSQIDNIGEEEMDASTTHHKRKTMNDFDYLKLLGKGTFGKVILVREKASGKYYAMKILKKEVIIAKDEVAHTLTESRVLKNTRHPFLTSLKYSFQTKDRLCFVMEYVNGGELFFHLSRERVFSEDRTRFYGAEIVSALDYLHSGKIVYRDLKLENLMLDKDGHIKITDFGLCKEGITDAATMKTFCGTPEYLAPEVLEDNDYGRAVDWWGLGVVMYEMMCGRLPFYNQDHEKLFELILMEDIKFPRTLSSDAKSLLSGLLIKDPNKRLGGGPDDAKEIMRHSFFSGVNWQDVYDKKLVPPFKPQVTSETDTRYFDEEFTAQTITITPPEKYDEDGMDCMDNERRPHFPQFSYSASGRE
RAC-alpha serine/threonine-protein kinase (Homo sapiens), sequence (P31749 whole entry): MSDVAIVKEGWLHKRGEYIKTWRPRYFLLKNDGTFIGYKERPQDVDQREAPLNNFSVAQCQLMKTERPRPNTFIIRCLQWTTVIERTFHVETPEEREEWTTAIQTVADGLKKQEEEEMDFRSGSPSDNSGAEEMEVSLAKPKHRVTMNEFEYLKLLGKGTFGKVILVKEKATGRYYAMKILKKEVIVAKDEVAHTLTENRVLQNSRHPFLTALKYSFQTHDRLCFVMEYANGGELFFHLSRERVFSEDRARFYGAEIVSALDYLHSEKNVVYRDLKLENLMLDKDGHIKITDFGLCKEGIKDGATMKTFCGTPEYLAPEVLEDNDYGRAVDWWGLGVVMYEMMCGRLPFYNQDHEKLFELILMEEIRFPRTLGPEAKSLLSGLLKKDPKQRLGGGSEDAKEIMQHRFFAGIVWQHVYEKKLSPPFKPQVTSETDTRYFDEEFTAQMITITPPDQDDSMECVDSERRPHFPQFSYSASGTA
Myosin light chain kinase 2, skeletal/cardiac muscle (Homo sapiens), sequence (Q9H1R3 whole entry): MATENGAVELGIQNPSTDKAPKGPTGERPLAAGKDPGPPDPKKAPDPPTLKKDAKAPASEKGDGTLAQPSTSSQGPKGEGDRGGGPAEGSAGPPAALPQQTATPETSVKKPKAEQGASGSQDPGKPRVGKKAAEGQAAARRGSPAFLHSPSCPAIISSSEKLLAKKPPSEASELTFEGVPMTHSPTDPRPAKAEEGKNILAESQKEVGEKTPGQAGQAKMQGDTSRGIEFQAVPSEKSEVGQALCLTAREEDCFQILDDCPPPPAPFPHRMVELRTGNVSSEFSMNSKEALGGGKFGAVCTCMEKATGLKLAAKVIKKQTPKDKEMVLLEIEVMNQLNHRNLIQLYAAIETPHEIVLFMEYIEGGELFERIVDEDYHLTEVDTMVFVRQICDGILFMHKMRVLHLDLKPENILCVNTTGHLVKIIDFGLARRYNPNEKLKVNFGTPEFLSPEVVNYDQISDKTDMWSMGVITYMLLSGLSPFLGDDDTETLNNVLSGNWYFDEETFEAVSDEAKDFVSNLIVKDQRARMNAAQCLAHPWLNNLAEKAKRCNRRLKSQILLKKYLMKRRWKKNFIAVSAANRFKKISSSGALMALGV
Mitogen-activated protein kinase 1 (Homo sapiens), sequence (P28482 whole entry): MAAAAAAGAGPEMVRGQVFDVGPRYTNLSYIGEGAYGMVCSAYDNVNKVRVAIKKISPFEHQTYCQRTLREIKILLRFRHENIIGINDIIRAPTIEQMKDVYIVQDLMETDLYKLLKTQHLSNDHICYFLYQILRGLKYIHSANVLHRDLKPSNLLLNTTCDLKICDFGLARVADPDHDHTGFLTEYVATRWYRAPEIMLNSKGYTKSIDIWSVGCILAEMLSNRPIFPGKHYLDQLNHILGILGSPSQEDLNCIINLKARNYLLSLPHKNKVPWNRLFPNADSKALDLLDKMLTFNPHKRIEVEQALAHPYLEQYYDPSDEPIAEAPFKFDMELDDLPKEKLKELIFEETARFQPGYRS
Cyclin-dependent kinase 9 (Homo sapiens), sequence (P50750 whole entry): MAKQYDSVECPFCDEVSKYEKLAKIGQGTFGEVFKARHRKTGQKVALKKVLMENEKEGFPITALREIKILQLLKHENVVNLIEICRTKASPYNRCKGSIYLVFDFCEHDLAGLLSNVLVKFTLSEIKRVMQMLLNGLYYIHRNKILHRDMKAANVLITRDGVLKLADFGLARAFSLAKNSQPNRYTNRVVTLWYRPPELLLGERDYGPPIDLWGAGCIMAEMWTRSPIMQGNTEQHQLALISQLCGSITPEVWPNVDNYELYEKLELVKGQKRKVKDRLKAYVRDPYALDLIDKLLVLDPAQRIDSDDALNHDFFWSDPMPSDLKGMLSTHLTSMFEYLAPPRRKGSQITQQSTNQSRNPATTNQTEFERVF
Calcium/calmodulin-dependent protein kinase type 1G (Homo sapiens), sequence (Q96NX5 whole entry, canonical isoform): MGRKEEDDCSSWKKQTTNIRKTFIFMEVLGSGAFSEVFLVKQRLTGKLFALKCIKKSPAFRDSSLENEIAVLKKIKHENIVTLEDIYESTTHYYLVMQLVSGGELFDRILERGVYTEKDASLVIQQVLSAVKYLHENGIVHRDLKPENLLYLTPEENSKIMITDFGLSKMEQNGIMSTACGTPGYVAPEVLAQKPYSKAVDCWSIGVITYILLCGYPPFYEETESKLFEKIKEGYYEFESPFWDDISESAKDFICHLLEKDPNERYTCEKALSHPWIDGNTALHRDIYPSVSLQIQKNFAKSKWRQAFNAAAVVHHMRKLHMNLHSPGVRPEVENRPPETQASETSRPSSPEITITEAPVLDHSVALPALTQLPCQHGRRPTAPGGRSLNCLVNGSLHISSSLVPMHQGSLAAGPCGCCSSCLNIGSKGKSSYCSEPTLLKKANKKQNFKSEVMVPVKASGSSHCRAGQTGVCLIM
Serine/threonine-protein kinase PAK 3 (Homo sapiens), sequence (O75914 whole entry, looked up): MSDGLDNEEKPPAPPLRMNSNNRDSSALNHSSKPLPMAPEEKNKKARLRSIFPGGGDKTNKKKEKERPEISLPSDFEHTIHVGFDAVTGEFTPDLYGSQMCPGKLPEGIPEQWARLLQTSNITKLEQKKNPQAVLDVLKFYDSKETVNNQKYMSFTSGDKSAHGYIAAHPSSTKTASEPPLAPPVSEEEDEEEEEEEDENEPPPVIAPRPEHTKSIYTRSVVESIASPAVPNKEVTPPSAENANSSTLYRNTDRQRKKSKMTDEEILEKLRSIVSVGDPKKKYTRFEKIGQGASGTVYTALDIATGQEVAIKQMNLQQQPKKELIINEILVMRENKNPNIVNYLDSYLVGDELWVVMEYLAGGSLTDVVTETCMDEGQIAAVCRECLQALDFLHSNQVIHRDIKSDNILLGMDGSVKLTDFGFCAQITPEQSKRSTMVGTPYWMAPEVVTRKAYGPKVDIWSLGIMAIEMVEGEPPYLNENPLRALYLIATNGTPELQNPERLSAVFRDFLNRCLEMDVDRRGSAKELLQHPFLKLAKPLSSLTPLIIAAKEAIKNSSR
LIM domain kinase 2 (Homo sapiens), sequence (P53671 whole entry, looked up, the tested form may be a part): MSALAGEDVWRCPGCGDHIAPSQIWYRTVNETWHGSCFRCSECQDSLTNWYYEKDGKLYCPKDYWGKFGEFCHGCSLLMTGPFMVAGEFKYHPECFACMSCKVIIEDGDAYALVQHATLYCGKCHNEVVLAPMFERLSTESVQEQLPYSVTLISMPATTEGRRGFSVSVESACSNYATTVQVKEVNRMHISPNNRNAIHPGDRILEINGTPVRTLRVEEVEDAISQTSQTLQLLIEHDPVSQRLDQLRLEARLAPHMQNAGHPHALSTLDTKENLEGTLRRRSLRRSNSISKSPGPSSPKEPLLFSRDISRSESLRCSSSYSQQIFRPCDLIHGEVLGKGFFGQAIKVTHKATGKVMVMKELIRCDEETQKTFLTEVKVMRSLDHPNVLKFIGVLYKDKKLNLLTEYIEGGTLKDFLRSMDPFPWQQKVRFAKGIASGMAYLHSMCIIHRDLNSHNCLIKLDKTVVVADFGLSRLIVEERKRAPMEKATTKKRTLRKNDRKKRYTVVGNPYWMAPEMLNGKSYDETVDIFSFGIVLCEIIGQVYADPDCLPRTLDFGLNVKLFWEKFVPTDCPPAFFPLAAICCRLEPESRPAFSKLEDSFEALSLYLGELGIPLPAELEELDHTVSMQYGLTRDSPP

Nc1cnc(N2CCc3cc(S(=O)(=O)Nc4c(F)cc(Cl)cc4F)cc(N4CCCC4=O)c32)nc1
residual activity [1]: 91%
residual activity [2]: 100%
residual activity [3]: 98%
residual activity [4]: 100%
residual activity [5]: 100%
residual activity [6]: 100%
residual activity [7]: 100%
residual activity [8]: 100%
residual activity [9]: 100%
residual activity [10]: 85%
residual activity [11]: 96%
residual activity [12]: 100%
residual activity [13]: 100%
residual activity [14]: 94%
residual activity [15]: 85%
residual activity [16]: 100%
residual activity [17]: 87%
residual activity [18]: 89%
residual activity [19]: 100%
residual activity [20]: 89%
residual activity [21]: 100%
residual activity [22]: 88%
residual activity [23]: 100%
residual activity [24]: 100%
residual activity [25]: 93%
residual activity [26]: 76%
inhibition [27]: 0.94%
residual activity [28]: 75%
residual activity [29]: 83%
residual activity [30]: 85%
residual activity [31]: 76%
residual activity [32]: 100%
residual activity [33]: 100%
residual activity [34]: 100%
residual activity [35]: 85%
residual activity [36]: 87%
residual activity [37]: 100%
residual activity [38]: 97%
residual activity [39]: 100%
residual activity [40]: 100%
residual activity [41]: 100%
residual activity [42]: 95%
residual activity [43]: 100%
inhibition [44]: -8.35%
residual activity [45]: 91%
residual activity [46]: 88%

Cn1nc(C(F)(F)F)cc1-c1cnc(N2CCc3cc(S(=O)(=O)Nc4c(F)cc(Cl)cc4F)cc(N4CCCC4=O)c32)nc1 [TP-020]
residual activity [1]: 100%
residual activity [2]: 12%
residual activity [3]: 94%
residual activity [4]: 92%
residual activity [5]: 100%
residual activity [6]: 100%
residual activity [7]: 96%
residual activity [8]: 82%
residual activity [9]: 82%
residual activity [10]: 100%
residual activity [11]: 100%
residual activity [12]: 100%
residual activity [13]: 100%
residual activity [14]: 84%
residual activity [15]: 86%
residual activity [16]: 95%
residual activity [17]: 100%
residual activity [18]: 88%
residual activity [19]: 100%
residual activity [20]: 100%
residual activity [21]: 100%
residual activity [22]: 100%
residual activity [23]: 94%
residual activity [24]: 84%
residual activity [25]: 77%
residual activity [26]: 67%
inhibition [27]: 4.51%
residual activity [28]: 67%
residual activity [29]: 100%
residual activity [30]: 78%
residual activity [31]: 100%
residual activity [32]: 100%
residual activity [33]: 87%
residual activity [34]: 77%
residual activity [35]: 95%
residual activity [36]: 85%
residual activity [37]: 97%
residual activity [38]: 72%
residual activity [39]: 99%
residual activity [40]: 78%
residual activity [41]: 93%
residual activity [42]: 100%
residual activity [43]: 100%
inhibition [44]: -6.95%
residual activity [45]: 87%
residual activity [46]: 100%
